Experimental data reported in patent US6652860B1, “Peptide, apoEp 1.B, compositions and uses thereof” (University of Western Ontario, priority 1997, dated 2003).
Where no end group is shown, it is not given here.

Key:
immune cells = assay: Activation and differentiation of immune cells; format: cell-based
[1] = test system: iliofemoral artery of the rat; assay: Balloon angioplasty injury model, plaque development in iliofemoral artery; format: in vivo; details: treated rats
Protocol: To investigate the role of apoEp1.B peptide in inflammation, particularly in response to arterial injury, a balloon angioplasty injury model which has been well characterized by Dr. Alex Lucas (Lucas et al. 1996 Circ. 94:2898-900) was used. 300 μg/ml of apoEp1 or apoEp1.B peptide were infused intra-arterially immediately prior to angioplasty at the site of injury in the iliofemoral artery of the rat. Positive control SERP-1 and negative control saline alone were also used. The rats were monitored carefully and euthanized 6 weeks after treatment and iliofemoral arteries were assessed for plaque development by histochemistry.

PU5-1.8 cells [2] = assay: DC-like surface marker expression on PU5-1.8 cells (FACS); format: cell-based, murine; details: 100 μg/ml, 24 hr, 10^5 PU5-1.8 cells
Protocol: (§1) 1×10^6 cells were washed with ice cold PBS and resuspended in 25 μl PBS and incubated with 10 μl normal mouse serum and fluorochrome conjugated anti-mouse D11a, CD11b, CD14, MHC class II, CD95, CD62L, CD62E, B7-1, B7-2 and ICAM-1 Pharmingen, Mississauga, Canada) monoclonal antibodies (mAb's) for 45 minutes on ice. endritic cell markers DEC-205, 33D1, CD11c (N418) unconjugated antibodies were imilarly treated, however, following primary antibody incubation,cells were washed 3 times and a secondary goat anti-rat (for 33D1 and DEC-205 ab's) and goat anti-hamster (for CD11c ab) fluorochrome-conjugated antibody was then added for 45 min on ice. Cells were then washed three times. All samples were resuspended in 300 μl PBS and the fluorescence of stained cells was analyzed on a FACScan flow cytometer (Becton Dickinson, Mountain View, Calif.) and data collected was analyzed using Lysis II (Becton-Dickinson) software.
(§2) Morphologically apoEp1.B-treated cells appeared DC-like. This was confirmed this by FACS analysis. Unprimed BALB/c splenocytes and PU5-1.8 cells were incubated for 24 hr with 100 μg/ml apoEp1.B or control peptide apoEp1.D and then stained for FACS analysis.
To assess whether apoEp1.B-induced phenotypic changes are dose-dependent, 10^5 PU5-1.8 cells were incubated for 20 hr with 0 (medium), 1, 10 or 100 μg/ml apoEp1.B in 24-well plates and were then stained for FACS analysis. […]

PU5-1.8 cells [3] = assay: DC marker changes (B7-1 FACS) of PU5-1.8 cells incubated with modified apoEp1.B peptides; format: cell-based, murine; details: 20 hours
Protocol: Murine monocytic PU5-1.8 and J77A1.4 transformed cell lines, human monoblastic leukemia THP-1 and U-937, and murine B cell lymphoma A20 cells were cultured in RPMI 1640 medium (Gibco Laboratories, Grand Island, N.Y.) containing […] 2ME, 10 mM HEPES, 2 mM glutamine, 5.0 IU/ml penicillin streptomycin (Gibco) and 10%. heat inactivated Fetal Bovine Serum (FBS) (Hyclone Laboratories Inc., Logan, Utah)(cRPMI).
as §1, with “software. […]” for “software.”

splenocytes = assay: Surface marker expression on unprimed splenocytes (FACS); format: cell-based, mice; details: splenocytes (data not shown)
Protocol: as §1, §2
There were no changes in the expression of CD16/32 at any time.
Unprimed B6 and NOD splenocytes were incubated with 100 μg/ml apoEp1.B or apoEp1.D to determine whether apoEp1.B was strain-specific. […]

[4] = test system: Unprimed splenocytes, enriched spleen monocytes and monocytic PU5-1.8 and J77A4.1 cell lines; assay: Dendritic-like cell morphology in vitro; format: cell-based, BALB/c mice; details: after 2 hr, optimally at 100 μg/ml
Protocol: Unprimed splenocytes, enriched spleen monocytes and monocytic PU5-1.8 and J77A4.1 cell lines from BALB/c mice were incubated with 0, 1, 10, or 100 μg/ml apoEp1.B (239-252) or negative control apoEp1.D (236-249) peptide to assess activity. […] After 24 hr, morphologically these cells appeared less rounded, more granular.

[5] = test system: BALB/c naive T cells co-cultured with NOD splenocytes; assay: Mixed leukocyte reaction, T cell allostimulatory activity of treated APC's; format: cell-based, mice; details: particularly at 4×10^3 APC's per well
Protocol: Primary allogeneic MLR was set up with NOD splenocytes as stimulators and nylon wool enriched BALB/c naive T cells as responders. Stimulator cells were pre-incubated for 3 days with different combinations of apoEp1.B, GM-CSF, and PU5-1.8 supernatant containing TNF. Stimulator cells were then treated with mitomycin C (50 μg/ml, 20 min at 37° C.; Sigma) and co-cultured with 4×10^4 responder for 3 days at which time cells were pulsed with 50 μl [^3H]-TdR (0.5 μCi/well) for 24 hr. Cells were harvested (Tomtec) and [^3H]-TdR incorporation was measured on a Microbeta Liquid Scintillation Counter (Wallac). Each bar represents the mean cpm from triplicate cultures.
To measure the T cell allostimulatory or inhibitory ability of these DC's, 4×10^4 enriched BALB/c naive T cells were co-cultured with 40, 400, 4000 and 40,000 mitomycin C-treated NOD splenocytes which had been incubated with various stimualants for 3 d. T cell proliferation was measured following 3 days of co-culture by [^3H]-TdR incorporation. Bars represent the mean of triplicate wells (cpm+/−S.D.). * and ** represent p<0.05 and p<0.001, respectively in 2-way ANOVA's compared to medium alone (nil) controls. […] Upon combining responder T cells with APC, various exogenous factors were added, including 20 μg/ml Con A and 5 μg/ml apoEp1.B. Very little proliferation was detected in wells containing T cells alone or APC alone.

apoE: Human plasma VLDL purified apoE (Calbiochem) was used as native apoE
induces activation and differentiation of immune cells (immune cells): not

TQQIRLQAEIFQAR [apoEp1.B, TQQIRLQAEIFQAR]
adverse effects [1]: No adverse effects were observed

AQQIRLQAEAFQAR (listed as Homo sapiens) [human apoEp1.B]
cell clustering and marker increase compared to murine apoEp1.B (PU5-1.8 cells [2]): to a lesser degree | effect on surface marker changes compared to apoEp1.B (PU5-1.8 cells [3]; 100 μg/ml, PU5-1.8 cells): slightly reduced effect

EEQ TQQ IRL QAE IFQ AR (EEQTQQIRLQAEIFQAR; Murine) [apoEp1]
induces activation and differentiation of immune cells (immune cells): does not induce DC's | CD40 expression (splenocytes): increase in CD40 | L-selectin expression (splenocytes): decrease in L-selectin | DC Marker Changes (PU5-1.8 cells [3]; Table 1 elongations and truncations, 100 μg/ml peptide, 10^5 PU5-1.8 cells, B7-1 stain, FACS): slight

apoEp1.D: negative control apoEp1.D (236-249) peptide (VAEVRAKLEEQAQQ; UniProt P02649 254-267, looked up, fragment)
detachment from plastic plates and aggregation in suspension [4]: not

GM-CSF: cytokine used to pre-incubate stimulator cells in MLR
allostimulation after APC pre-incubation [5]: dramatic increase in allostimulation
